# According to patent US4707477A, “Treating and preventing agent for ischemic cardiac disease and arrhythmia” (priority 1985, dated 1987):
# Structures can show the parent of a compound that is named as a salt.
# Experiments:
# dog = assay: Adrenaline-induced ventricular tachycardia/fibrillation after CaCl2 infusion in anesthetized dog (Experimental Example 1); type: in vivo; conditions: 0.5 mg/kg i.v. 12 min before adrenaline, 0.1, 0.2 and 0.3 mg adrenaline successively i.v., 2% CaCl2 infusion
# Method: (§1) A dog was anesthetized with 50 mg/kg of sodium pentobarbital and a 2% CaC12 solution was intravenously injected into the femoral vein of the animal at a rate of 1.33 ml/min/10 kg. After 90 min, 0.1 mg, 0.2 mg and 0.3 mg of adrenaline were successively injected thereto intraveneously.
# striated structure = assay: Pathological examination of striated structure (Experimental Example 1); type: in vivo, dog; conditions: previously administered, 0.5 mg/kg i.v.
# Method: as §1
# From a pathological viewpoint, the striated structure of a subject was damaged in the case where no bunazosin hydrochloride was previously administered.
# [1] = system: Creatinie phosphokinase (CPK); assay: Creatine phosphokinase (CPK) after CaCl2, sodium polystyrenesulfonate and adrenaline in anesthetized dog (Experimental Example 2); type: in vivo; conditions: 0.5 mg/kg previously administered
# Method: A dog was anesthetized with 50 mg/kg of sodium pentobarbital and a 0.5% CaCl2 solution was intravenously injected into the femoral vein of the animal at a rate of 1.33 ml/min/10 kg simultaneously with enemiasis of 25 g of sodium polystyrenesulfonate. After 30 min, 0.05 mg/kg of adrenaline was intravenously injected thereto.
# [2] = Acute toxicity, LD50, ICR mouse; conditions: in vivo
# [3] = Acute toxicity, LD50, Wistar rat; conditions: in vivo
# Solubility = type: physicochemical
smiles,measurement,setting,value
CCCC(=O)N1CCCN(c2nc(N)c3cc(OC)c(OC)cc3n2)CC1 [bunazosin hydrochloride],ventricular tachycardia or ventricular fibrillation,dog,none among ten animals
same,change of striated structure (pathological viewpoint),striated structure,no change was observed
same,"CPK, difference from the control",[1]; 60 min after injection of adrenaline,no significant difference from the control
same,CPK,[1]; determined 60 min after injection of adrenaline (0.05 mg/kg i.v.),85.1±15.6
same,LD50,"[2]; im, female, intramuscular",598 mg/kg
same,LD50,"[2]; im, male, intramuscular",660 mg/kg
same,LD50,"[2]; iv, female",80 mg/kg
same,LD50,"[2]; iv, male",57 mg/kg
same,LD50,"[2]; po, female",1250 mg/kg
same,LD50,"[2]; po, male",1200 mg/kg
same,LD50,"[2]; sc, female, subcutaneous",630 mg/kg
same,LD50,"[2]; sc, male, subcutaneous",730 mg/kg
same,LD50,"[3]; im, female, intramuscular",152 mg/kg
same,LD50,"[3]; im, male, intramuscular",205 mg/kg
same,LD50,"[3]; iv, female",50 mg/kg
same,LD50,"[3]; iv, male",51 to 64 mg/kg
same,LD50,"[3]; po, female",1280 mg/kg
same,LD50,"[3]; sc, female, subcutaneous",365 mg/kg
same,LD50,"[3]; sc, male, subcutaneous",430 mg/kg
same,solubility,Solubility; absolute ethanol,hardly soluble
same,solubility,Solubility; chloroform,almost insoluble
same,solubility,Solubility; formic acid,highly soluble
same,solubility,Solubility; methanol,not readily soluble
same,solubility,Solubility; n-butanol,hardly soluble
same,solubility,Solubility; water,not readily soluble
